Reference: the RepoRT retention time repository (doi:10.1016/j.jchromb.2020.122105)

Key:
Settings in all cases: stereoisomer not certain
[1] = RP, Waters ACQUITY UPLC BEH C18, 100 × 2.1 mm, 1.7 µm, 0.2 mL/min, estimated dead time 1.1 min; A: water + 0.025% formic acid + 20 mM ammonium acetate + 0.055% ammonium hydroxide, pH 7; B: methanol; gradient (min/%B) 0/5 5/5 25/100 30/100 30.1/5 35/5
[2] = HILIC, Waters XBridge BEH Amide, 100 × 2.1 mm, 2.5 µm, 0.5 mL/min, estimated dead time 0.44 min; A: water + 0.1% acetic acid + 10 mM ammonium acetate, pH 4; B: 5% water + 95% acetonitrile + 0.1% acetic acid + 10 mM ammonium acetate, pH 4; gradient (min/%B) 0/95 5/95 20/57 25/57 30/95 40/95
[3] = RP, Waters ACQUITY UPLC BEH C18, 100 × 2.1 mm, 1.7 µm, 0.1 mL/min, estimated dead time 2.2 min; A: water + 0.1% formic acid, pH 3; B: methanol + 0.1% formic acid, pH 3; gradient (min/%B) 0/5 5/5 25/95 25.1/100 35/100 35.1/5 45/5
[4] = RP, Waters ACQUITY UPLC BEH C18, 100 × 2.1 mm, 1.7 µm, 0.2 mL/min, estimated dead time 1.1 min; A: water + 0.1% formic acid, pH 3; B: methanol + 0.1% formic acid, pH 3; gradient (min/%B) 0/5 5/5 25/100 30/100 30.1/5 35/5
[5] = RP, Waters CORTECS T3, 100 × 2.1 mm, 2.7 µm, 0.3 mL/min, estimated dead time 0.73 min; A: water + 0.1% formic acid, pH 3; B: methanol + 0.1% formic acid, pH 3; gradient (min/%B) 0/0 1/0 6/5 30/100 35/100 35.1/0 40/0
[6] = RP, Waters CORTECS T3, 100 × 2.1 mm, 2.7 µm, 0.25 mL/min, estimated dead time 0.88 min; A: water + 0.1% formic acid, pH 3; B: methanol + 0.1% formic acid, pH 3; gradient (min/%B) 0/5 5/5 25/95 25.1/100 35/100 35.1/5 45/5
[7] = RP, Waters CORTECS T3, 100 × 2.1 mm, 2.7 µm, 0.15 mL/min, estimated dead time 1.5 min; A: water + 0.1% formic acid, pH 3; B: methanol + 0.1% formic acid, pH 3; gradient (min/%B) 0/5 5/5 25/95 25.1/100 35/100 35.1/5 45/5
[8] = RP, Waters CORTECS T3, 100 × 2.1 mm, 2.7 µm, 0.3 mL/min, estimated dead time 0.73 min; A: water + 0.1% formic acid, pH 3; B: methanol + 0.1% formic acid, pH 3; gradient (min/%B) 0/0 5/0 25/100 30/100 30.1/0 35/0
[9] = RP, Waters CORTECS T3, 100 × 2.1 mm, 2.7 µm, 0.2 mL/min, estimated dead time 1.1 min; A: water + 0.1% formic acid, pH 3; B: methanol + 0.1% formic acid, pH 3; gradient (min/%B) 0/5 5/5 25/95 25.1/100 35/100 35.1/5 45/5
[10] = RP, Waters CORTECS T3, 100 × 2.1 mm, 2.7 µm, 0.2 mL/min, estimated dead time 1.1 min; A: water + 0.1% formic acid, pH 3; B: methanol + 0.1% formic acid, pH 3; gradient (min/%B) 0/0 1/0 6/5 30/100 35/100 35.1/0 40/0
[11] = HILIC, Merck SeQuant ZIC-HILIC, 150 × 2.1 mm, 5 µm, 0.75 mL/min, estimated dead time 0.44 min; A: water + 10 mM ammonium formate, pH 6; B: 5% water + 95% acetonitrile + 10 mM ammonium formate, pH 6; gradient (min/%B) 0/95 5/95 20/57 25/57 30/95 40/95
[12] = RP, Waters CORTECS T3, 100 × 2.1 mm, 2.7 µm, 0.3 mL/min, estimated dead time 0.73 min; A: water + 0.1% formic acid, pH 3; B: methanol + 0.1% formic acid, pH 3; gradient (min/%B) 0/5 5/5 25/95 25.1/100 35/100 35.1/5 45/5
[13] = RP, Waters CORTECS T3, 100 × 2.1 mm, 2.7 µm, 0.15 mL/min, estimated dead time 1.5 min; A: water + 0.1% formic acid, pH 3; B: methanol + 0.1% formic acid, pH 3; gradient (min/%B) 0/0 1/0 6/5 30/100 35/100 35.1/0 40/0
[14] = RP, Waters CORTECS T3, 100 × 2.1 mm, 2.7 µm, 0.2 mL/min, estimated dead time 1.1 min; A: water + 0.1% formic acid, pH 3; B: methanol + 0.1% formic acid, pH 3; gradient (min/%B) 0/0 1/0 6/5 30/100 35/100 35.1/0 40/0; remark: listed apart in the source
[15] = RP, Waters CORTECS T3, 100 × 2.1 mm, 2.7 µm, 0.25 mL/min, estimated dead time 0.88 min; A: water + 0.1% formic acid, pH 3; B: methanol + 0.1% formic acid, pH 3; gradient (min/%B) 0/0 1/0 6/5 30/100 35/100 35.1/0 40/0
[16] = RP, Waters CORTECS T3, 100 × 2.1 mm, 2.7 µm, 0.3 mL/min, estimated dead time 0.73 min; A: water + 0.1% formic acid, pH 3; B: methanol + 0.1% formic acid, pH 3; gradient (min/%B) 0/5 5/5 25/100 30/100 30.1/5 35/5
[17] = RP, Waters ACQUITY UPLC BEH C18, 100 × 2.1 mm, 1.7 µm, 0.1 mL/min, estimated dead time 2.2 min; A: water + 0.1% formic acid, pH 3; B: methanol + 0.1% formic acid, pH 3; gradient (min/%B) 0/5 5/5 25/100 30/100 30.1/5 35/5
[18] = RP, Waters CORTECS T3, 100 × 2.1 mm, 2.7 µm, 0.3 mL/min, estimated dead time 0.73 min; A: water + 0.1% formic acid, pH 3; B: methanol + 0.1% formic acid, pH 3; gradient (min/%B) 0/0 5/0 25/100 30/100 30.1/0 35/0; remark: listed apart in the source
[19] = RP, Waters CORTECS T3, 100 × 2.1 mm, 2.7 µm, 0.3 mL/min, estimated dead time 0.73 min; A: water + 0.1% formic acid, pH 3; B: methanol + 0.1% formic acid, pH 3; gradient (min/%B) 0/0 1/0 6/5 30/100 35/100 35.1/0 40/0; remark: listed apart in the source
[20] = HILIC, Merck SeQuant ZIC-HILIC, 150 × 2.1 mm, 5 µm, 0.75 mL/min, estimated dead time 0.44 min; A: water + 0.1% acetic acid + 10 mM ammonium acetate, pH 4; B: 5% water + 95% acetonitrile + 0.1% acetic acid + 10 mM ammonium acetate, pH 4; gradient (min/%B) 0/95 5/95 20/57 25/57 30/95 40/95
[21] = RP, Waters CORTECS T3, 100 × 2.1 mm, 2.7 µm, 0.1 mL/min, estimated dead time 2.2 min; A: water + 0.1% formic acid, pH 3; B: methanol + 0.1% formic acid, pH 3; gradient (min/%B) 0/5 5/5 25/95 25.1/100 35/100 35.1/5 45/5
[22] = RP, Waters CORTECS T3, 100 × 2.1 mm, 2.7 µm, 0.1 mL/min, estimated dead time 2.2 min; A: water + 0.1% formic acid, pH 3; B: methanol + 0.1% formic acid, pH 3; gradient (min/%B) 0/0 1/0 6/5 30/100 35/100 35.1/0 40/0

| SMILES | LC retention time [1] | LC retention time [2] | LC retention time [3] | LC retention time [4] | LC retention time [5] | LC retention time [6] | LC retention time [7] | LC retention time [8] | LC retention time [9] | LC retention time [10] | LC retention time [11] | LC retention time [20] | also measured |
| --- | --- | --- | --- | --- | --- | --- | --- | --- | --- | --- | --- | --- | --- |
| N[C@@H](Cc1ccc(O)c(O)c1)C(=O)O [3,4-DIHYDROXY-L-PHENYLALANINE] |  |  | 2.7 min | 1.38 min |  |  | 1.78 min |  | 2.75 min | 1.42 min |  |  | LC retention time [12]: 0.9 min; LC retention time [13]: 1.87 min; LC retention time [14]: 1.38 min; LC retention time [15]: 1.13 min; LC retention time [16]: 0.93 min; LC retention time [17]: 2.74 min; LC retention time [18]: 0.93 min; LC retention time [19]: 0.92 min |
| CC(CCC(=O)O)C1CCC2C3C(O)CC4CC(O)CCC4(C)C3CC(O)C12C (stereo unspecified) [CHOLATE] | 19.6 min |  |  | 22.9 min | 25.4 min | 22.9 min | 24.7 min | 21.9 min | 29.8 min |  |  |  |  |
| CC(O)(CC(=O)O)C(=O)O (stereo unspecified) [CITRAMALATE] |  |  | 5.3 min | 2.7 min | 2.32 min | 1.99 min | 3.28 min | 2.32 min | 6.38 min | 3.28 min | 12.8 min | 12.2 min |  |
| COc1cc(C=CC(=O)O)ccc1O [FERULATE] | 1.78 min | 2.26 min | 17.2 min | 14.3 min |  |  | 15.1 min |  | 19.1 min | 15.6 min | 2.09 min | 3.23 min | LC retention time [13]: 16.9 min; LC retention time [15]: 14.8 min; LC retention time [16]: 12.3 min; LC retention time [21]: 17.2 min; LC retention time [19]: 14.1 min |
| Nc1nc2ncc(CNc3ccc(C(=O)NC(CCC(=O)O)C(=O)O)cc3)nc2c(=O)[nH]1 (stereo unspecified) [FOLIC ACID] | 1.36 min |  |  | 11.2 min | 12.2 min | 11.1 min | 12.6 min | 11.4 min | 15.9 min | 13.2 min | 14.9 min | 14.4 min | LC retention time [22]: 11.7 min; LC retention time [12]: 10.7 min; LC retention time [14]: 13.2 min; LC retention time [15]: 12.6 min; LC retention time [16]: 10.5 min; LC retention time [17]: 13.8 min; LC retention time [18]: 11.3 min; LC retention time [19]: 12.2 min |
| CC(=O)N[C@@H](CC(=O)O)C(=O)O [N-ACETYL-L-ASPARTIC ACID] | 1.36 min | 13.5 min |  | 1.84 min | 0.96 min | 1.13 min | 1.83 min | 0.97 min | 2.78 min | 1.42 min | 14 min | 13.5 min |  |
| O=C(O)CCCCCCCCCCCO [OMEGA-HYDROXYDODECANOIC ACID] | 16.3 min | 1.1 min |  |  | 22.4 min | 20.4 min | 22.2 min |  |  |  |  |  |  |
| O=c1ccn(C2OC(CO)C(O)C2O)c(=O)[nH]1 (stereo unspecified) [URIDINE] |  | 3.95 min |  |  |  |  | 1.83 min |  |  |  |  | 4.54 min |  |

Continued, in another order:

| LC retention time [1] | LC retention time [2] | LC retention time [3] | LC retention time [4] | LC retention time [5] | LC retention time [6] | LC retention time [7] | LC retention time [8] | LC retention time [9] | LC retention time [10] | LC retention time [11] | LC retention time [20] | SMILES | also measured |
| --- | --- | --- | --- | --- | --- | --- | --- | --- | --- | --- | --- | --- | --- |
| 2.97 min | 8.06 min | 13.3 min | 9.48 min | 8.96 min | 7.94 min | 10.4 min | 9.23 min | 14.3 min | 10.6 min |  |  | CSCCC(NC(C)=O)C(=O)O (racemic) [N-ACETYL-DL-METHIONINE] |  |
|  |  | 2.67 min | 1.38 min | 0.92 min |  |  | 0.89 min | 2.67 min | 1.35 min | 14.5 min |  | Nc1ccn(C2CC(O)C(COP(=O)(O)O)O2)c(=O)n1 (stereo unspecified) [2'-DEOXYCYTIDINE 5'-MONOPHOSPHATE] |  |
|  |  |  |  |  |  | 1.98 min | 0.89 min |  | 1.35 min |  |  | Nc1ccn(C2OC(COP(=O)(O)OP(=O)(O)O)C(O)C2O)c(=O)n1 (stereo unspecified) [CYTIDINE 5'-DIPHOSPHATE] |  |
| 1.41 min |  |  |  | 6.25 min |  | 7.38 min |  | 12.2 min | 8.23 min |  |  | CCOC(OCC)C(O)COP(=O)(O)O (stereo unspecified) [GLYCERALDEHYDE 3-PHOSPHATE DIETHYL ACETAL] |  |
